In ChEMBL document CHEMBL3085727 (J Med Chem, 2013):
The source made the active and inactive calls. No cut-off for these calls is given here.

Legend:
[1] = biological target: T1, Kappa-type opioid receptor (Homo sapiens, UniProt P41145); test: Partial agonist activity at human kappa opioid receptor expressed in CHO cells assessed as stimulation of [35S]-GTPgammaS binding after 3 hrs by liquid scintillation counting analysis; format: functional, cell-based
[2] = organism: Homo sapiens; test: Selectivity ratio of Ki for delta opioid receptor (unknown origin) to Ki for mu opioid receptor (unknown origin)
[3] = organism: Homo sapiens; test: Selectivity ratio of Ki for kappa opioid receptor (unknown origin) to Ki for mu opioid receptor (unknown origin)
[4] = biological target: T2, Mu-type opioid receptor (Homo sapiens, UniProt P35372); test: Agonist activity at mu opioid receptor (unknown origin) expressed in CHO cell membranes assessed as stimulation of [35S]-GTPgammaS binding after 1.5 hrs relative to DAMGO; format: functional
T2 sequence (P35372 whole entry): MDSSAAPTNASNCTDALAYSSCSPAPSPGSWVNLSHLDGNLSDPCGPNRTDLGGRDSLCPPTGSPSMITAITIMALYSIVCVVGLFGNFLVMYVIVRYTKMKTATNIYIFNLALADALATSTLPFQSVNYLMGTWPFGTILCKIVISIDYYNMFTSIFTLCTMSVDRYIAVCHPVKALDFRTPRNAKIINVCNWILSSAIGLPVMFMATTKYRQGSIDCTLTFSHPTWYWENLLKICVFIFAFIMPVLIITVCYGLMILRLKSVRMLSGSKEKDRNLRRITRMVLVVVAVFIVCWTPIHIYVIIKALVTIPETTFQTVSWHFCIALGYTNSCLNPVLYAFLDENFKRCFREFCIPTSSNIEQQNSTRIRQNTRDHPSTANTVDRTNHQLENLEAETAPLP

[5] = organism: Homo sapiens; test: Selectivity ratio of Ki for delta opioid receptor (unknown origin) to Ki for kappa opioid receptor (unknown origin)
[6] = organism: Homo sapiens; test: Selectivity ratio of Ki for human delta opioid receptor to Ki for human mu opioid receptor
[7] = organism: Homo sapiens; test: Selectivity ratio of Ki for human kappa opioid receptor to Ki for human mu opioid receptor
[8] = tested on: Mus musculus; test: Antinociceptive activity in Swiss-Webster mouse up to 30 mg/kg, sc by warm-water tail-flick assay; format: functional, organism-based; design: dose 30 mg/kg
[9] = tested on: Mus musculus; test: Induction of withdrawal symptoms in chronic morphine-exposed Swiss-Webster mouse assessed as decrease in wet dog shakes at 10 to 30 mg/kg, sc measured over 20 mins; format: organism-based; design: dose 10-30 mg/kg, route subcutaneous; settings: in vivo
[10] = tested on: Mus musculus; test: Induction of withdrawal symptoms in chronic morphine-exposed Swiss-Webster mouse assessed as decrease in escape jumps at 30 mg/kg, sc measured over 20 mins; format: organism-based; design: dose 30 mg/kg, route subcutaneous; settings: in vivo
[11] = tested on: Mus musculus; test: Induction of withdrawal symptoms in chronic morphine-exposed Swiss-Webster mouse assessed as decrease in escape jumps at 3 to 10 mg/kg, sc measured over 20 mins; format: organism-based; design: dose 3-10 mg/kg, route subcutaneous; settings: in vivo
[12] = biological target: T1, Kappa-type opioid receptor; test: Agonist activity at kappa opioid receptor (unknown origin) expressed in CHO cell membranes assessed as stimulation of [35S]-GTPgammaS binding after 1.5 hrs relative to U50488; format: functional
[13] = tested on: Mus musculus; test: Reduction of morphine-induced antinociceptive activity in sc dosed Swiss-Webster mouse assessed as dose required to antagonize morphine effect by warm-water tail-flick assay; format: functional
[14] = biological target: Delta-type opioid receptor (Homo sapiens) (UniProt P41143); test: Agonist activity at delta opioid receptor (unknown origin) expressed in CHO cell membranes assessed as stimulation of [35S]-GTPgammaS binding after 1.5 hrs relative to SNC80; format: functional
Sequence of Delta-type opioid receptor (Homo sapiens) (P41143 whole entry): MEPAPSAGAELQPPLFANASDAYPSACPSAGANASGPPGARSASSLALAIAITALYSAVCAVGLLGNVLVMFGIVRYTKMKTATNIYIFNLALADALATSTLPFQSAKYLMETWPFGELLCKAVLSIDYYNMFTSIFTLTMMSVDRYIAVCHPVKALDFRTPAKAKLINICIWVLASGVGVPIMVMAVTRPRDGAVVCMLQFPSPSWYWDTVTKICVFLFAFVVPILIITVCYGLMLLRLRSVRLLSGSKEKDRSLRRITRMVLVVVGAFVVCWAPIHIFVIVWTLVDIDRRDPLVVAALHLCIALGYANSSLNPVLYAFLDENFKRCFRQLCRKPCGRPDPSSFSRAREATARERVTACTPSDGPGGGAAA

[15] = biological target: T2, Mu-type opioid receptor; test: Agonist activity at mu opioid receptor (unknown origin) expressed in CHO cell membranes assessed as stimulation of [35S]-GTPgammaS binding at 10 uM after 1.5 hrs relative to DAMGO; format: functional
[16] = tested on: Mus musculus; test: Induction of withdrawal symptoms in chronic morphine-exposed Swiss-Webster mouse assessed as decrease in wet dog shakes at 3 mg/kg, sc measured over 20 mins; format: organism-based; design: dose 3 mg/kg, route subcutaneous; settings: in vivo
[17] = organism: Homo sapiens; test: Selectivity ratio of Ki for mu opioid receptor (unknown origin) to Ki for kappa opioid receptor (unknown origin)
[18] = tested on: Mus musculus; test: Induction of withdrawal symptoms in chronic morphine-exposed Swiss-Webster mouse assessed as decrease in escape jumps at 1 mg/kg, sc measured over 20 mins; format: organism-based; design: dose 1 mg/kg, route subcutaneous; settings: in vivo
[19] = tested on: Mus musculus; test: Induction of withdrawal symptoms in chronic morphine-exposed Swiss-Webster mouse assessed as decrease in wet dog shakes at 1 mg/kg, sc measured over 20 mins; format: organism-based; design: dose 1 mg/kg, route subcutaneous; settings: in vivo
[20] = tested on: Mus musculus; test: Induction of withdrawal symptoms in chronic morphine-exposed Swiss-Webster mouse assessed as decrease in escape jumps at 10 to 30 mg/kg, sc measured over 20 mins; format: organism-based; design: dose 10-30 mg/kg, route subcutaneous; settings: in vivo
[21] = tested on: Mus musculus; test: Induction of withdrawal symptoms in chronic morphine-exposed Swiss-Webster mouse assessed as decrease in wet dog shakes at 3 to 30 mg/kg, sc measured over 20 mins; format: organism-based; design: dose 3-30 mg/kg, route subcutaneous; settings: in vivo

T1 sequence (P41145 whole entry): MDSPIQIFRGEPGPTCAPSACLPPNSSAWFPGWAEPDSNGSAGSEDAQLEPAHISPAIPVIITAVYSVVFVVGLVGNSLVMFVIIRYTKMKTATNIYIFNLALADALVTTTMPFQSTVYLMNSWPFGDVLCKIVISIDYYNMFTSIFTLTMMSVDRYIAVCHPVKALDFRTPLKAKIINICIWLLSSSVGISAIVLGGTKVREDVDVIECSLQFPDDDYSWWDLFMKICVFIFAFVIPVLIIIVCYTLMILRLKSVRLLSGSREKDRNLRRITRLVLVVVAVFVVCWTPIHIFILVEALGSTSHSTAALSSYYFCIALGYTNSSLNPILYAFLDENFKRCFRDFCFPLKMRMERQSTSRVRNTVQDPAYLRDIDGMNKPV

Row | SMILES | Ratio Ki [2] | Ratio Ki [3] | Emax [4] [%] | Ratio Ki [5] | Ratio Ki [17] | other results
1 | Oc1cccc2c1O[C@H]1CCC[C@H]3CN(CC4CC4)CC[C@@]231 | – | – | – | – | – | EC50 [1]: 2.7 nM
2 | O=C(O[C@@]12CCC(=O)[C@@H]3Oc4c(O)ccc5c4[C@@]31CCN(CC1CC1)[C@@H]2C5)c1cnc2ccccc2c1 | 304 | 55 | 22 | 5.5 | – | –
3 | O=C(O[C@@]12CCC(=O)[C@@H]3Oc4c(O)ccc5c4[C@@]31CCN(CC1CC1)[C@@H]2C5)c1ccccn1 | 838 | 182 | – | 4.6 | – | –
4 | Cc1ccc(/C=C/C(=O)O[C@@]23CCC(=O)[C@@H]4Oc5c(O)ccc6c5[C@@]42CCN(CC2CC2)[C@@H]3C6)cc1 | – | – | – | – | – | Ratio Ki [6]: 31; Ratio Ki [7]: 15
5 | Cl.O=C(N[C@@]12CCC(=O)[C@@H]3Oc4c(O)ccc5c4[C@@]31CCN(CC1CC1)[C@@H]2C5)c1ccccn1 | 63 | – | – | 263 | 4.2 | Activity [8]: inactive; Activity [9]: Toxic; Activity [10]: Toxic; Activity [11]: Non-toxic; Emax [12]: 24.9%; Activity [13]: 0.25 mg/kg; Emax [14]: 8.6%; Emax [15]: 0.9%; Activity [16]: Non-toxic
6 | O=C(O[C@@]12CCC(=O)[C@@H]3Oc4c(O)ccc5c4[C@@]31CCN(CC1CC1)[C@@H]2C5)c1cccnc1 | 107 | 30 | – | 3.6 | – | –
7 | O=C(N[C@@]12CCC(=O)[C@@H]3Oc4c(O)ccc5c4[C@@]31CCN(CC1CC1)[C@@H]2C5)c1ccc2ccccc2c1 | 1.7 | – | 16.5 | 32 | 19 | –
8 | Cc1ccc(/C=C/C(=O)N[C@@]23CCC(=O)[C@@H]4Oc5c(O)ccc6c5[C@@]42CCN(CC2CC2)[C@@H]3C6)cc1 | – | – | – | – | – | Ratio Ki [6]: 1; Ratio Ki [7]: 3
9 | O=C1CC[C@@]2(O)[C@H]3Cc4ccc(O)c5c4[C@@]2(CCN3CC2CC2)[C@H]1O5 [NALTREXONE] | – | – | – | – | – | Activity [18]: Toxic; Activity [19]: Toxic
10 | C=CCN1CC[C@]23c4c5ccc(O)c4O[C@H]2C(=O)CC[C@@]3(O)[C@H]1C5 [NALOXONE] | – | – | – | – | – | Activity [18]: Toxic; Activity [19]: Toxic
11 | O=C(N[C@@]12CCC(=O)[C@@H]3Oc4c(O)ccc5c4[C@@]31CCN(CC1CC1)[C@@H]2C5)c1ccc2ccccc2n1 | 1.7 | – | 34.4 | 58 | 35 | –
12 | Cl.O=C(N[C@@]12CCC(=O)[C@@H]3Oc4c(O)ccc5c4[C@@]31CCN(CC1CC1)[C@@H]2C5)c1cccnc1 | 53 | – | – | 249 | 4.7 | Activity [8]: inactive; Activity [9]: Toxic; Emax [12]: 35.3%; Activity [13]: 0.55 mg/kg; Emax [14]: 10.3%; Emax [15]: 5.1%; Activity [20]: Toxic
13 | O=C(O[C@@]12CCC(=O)[C@@H]3Oc4c(O)ccc5c4[C@@]31CCN(CC1CC1)[C@@H]2C5)c1ccccc1 | – | 4.7 | – | > 17 | – | –
14 | O=C(CCc1ccccn1)N[C@@]12CCC(=O)[C@@H]3Oc4c(O)ccc5c4[C@@]31CCN(CC1CC1)[C@@H]2C5 | 29 | – | 12.7 | 54 | 1.9 | –
15 | O=C(N[C@@]12CCC(=O)[C@@H]3Oc4c(O)ccc5c4[C@@]31CCN(CC1CC1)[C@@H]2C5)c1cnc2ccccc2c1 | 1.3 | – | 15.8 | 11 | 8.7 | –
16 | Cl.O=C(N[C@@]12CCC(=O)[C@@H]3Oc4c(O)ccc5c4[C@@]31CCN(CC1CC1)[C@@H]2C5)c1cc2ccccc2cn1 | 7.2 | – | – | 93 | 13 | Activity [8]: inactive; Activity [21]: Toxic; Activity [10]: Toxic; Activity [11]: Non-toxic; Emax [12]: 16.8%; Activity [13]: 0.87 mg/kg; Emax [14]: 23.8%; Emax [15]: 2.8%
17 | O=C(N[C@@]12CCC(=O)[C@@H]3Oc4c(O)ccc5c4[C@@]31CCN(CC1CC1)[C@@H]2C5)c1ccccc1 | 13 | – | 5.8 | 477 | 36 | –
18 | O=C(O[C@@]12CCC(=O)[C@@H]3Oc4c(O)ccc5c4[C@@]31CCN(CC1CC1)[C@@H]2C5)c1ccncc1 | 73 | 8.8 | – | 8.2 | – | –
19 | O=C(O[C@@]12CCC(=O)[C@@H]3Oc4c(O)ccc5c4[C@@]31CCN(CC1CC1)[C@@H]2C5)c1ccc2ccccc2n1 | 16 | 47 | – | 0.34 | – | –
20 | COc1cccc2c1[C@]13CCN(CC4CC4)[C@H](C2)[C@]1(OC)CCC(=O)C3 [CYPRODIME] | 39 | 10 | – | – | – | –
21 | O=C(O[C@@]12CCC(=O)[C@@H]3Oc4c(O)ccc5c4[C@@]31CCN(CC1CC1)[C@@H]2C5)c1ccc2ccccc2c1 | 4 | 0.21 | – | 19 | – | –
22 | O=C(N[C@@]12CCC(=O)[C@@H]3Oc4c(O)ccc5c4[C@@]31CCN(CC1CC1)[C@@H]2C5)c1ccncc1 | 13 | – | 7.7 | 33 | 2.5 | –
23 | O=C(Cc1ccccn1)N[C@@]12CCC(=O)[C@@H]3Oc4c(O)ccc5c4[C@@]31CCN(CC1CC1)[C@@H]2C5 | 14 | – | 78 | 21 | 1.5 | –
24 | O=C(CNC(=O)c1ccccn1)N[C@@]12CCC(=O)[C@@H]3Oc4c(O)ccc5c4[C@@]31CCN(CC1CC1)[C@@H]2C5 | 1.2 | – | 11.8 | 2.6 | 2.1 | –
